In patent US5045566A, “Novel imidate insecticides” (ICI Americas Inc., priority 1989, dated 1991):

Legend:
Type in all cases: in vivo
[1] = tested on: Housefly [Musca domestica]; experiment: Housefly contact mortality in dishes (HF), 48 hours; conditions: μg of test compound per 25 female flies
In short: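 Dose range started at 100 μg per 25 female flies and went downward. Insects (1-2 days old) contacted a dried acetone/peanut-oil deposit in dishes; LC50 values come from dosage-mortality curves at 48 h.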

[2] = tested on: Cabbage Looper [Trichoplusia ni (Hubner)]; experiment: Cabbage looper leaf dip (CL), 3-5 days; conditions: percent in solution, second-instar larvae
In short: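 Squash cotyledons dipped 2-3 s in compound in 50-50 acetone-water, dried, then infested with 5 second-instar larvae and held at high humidity. Mortality scored after 3-5 days at concentrations from 0.1% downward. LC50 from dosage-mortality curves, expressed as percent compound in solution.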

[3] = tested on: Aster Leafhopper [Macrosteles fascifrens (Stal)]; experiment: Aster leafhopper on dipped oat seedlings (LH), 48 hours; conditions: percent in solution, adults/nymphs
Method: The compounds in Tables 1 and 2 above were tested for insecticidal activity using the following testing procedures. LC50 values, based on the results of these tests and calculated according to dosage-mortality curves, are expressed in Table 3.
Aster Leafhopper [Macrosteles fascifrens (Stal)]
Oat seedlings (Avena sp) were grown in a commercial potting soil in cups. When the plants were approximately 10 cm tall they were thinned to three plants per cup and dipped for 2-3 seconds in 50-50 acetone-water solutions of the test compounds. When the plants had dried, a clear plastic tube was placed over them and the bottom end pressed into the cup. Ten aster leafhopper adults/nymphs were then placed in each tube and the tops of the tubes covered with white organdy cloth. Mortality counts were made after 48 hours. Test concentrations ranged from 0.05% down to that at which 50% mortality occurred. The LC50 values are expressed below in Table 3 under the heading "LH" in terms of the percent of the test compound in the solution.

[4] = tested on: Tobacco Budworm [Heliothis virescens (Fabricius)] eggs; experiment: Tobacco budworm eggs (TBW-E); conditions: percent in solution; 2-day old eggs
In short: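 Paper-towel patches of 2-day-old eggs dipped in acetone solutions of compound (0.1% downward), held on larval rearing medium at 78° F. Mortality scored once all control eggs had hatched and larvae were feeding; LC50 from dosage-mortality curves, expressed as percent compound in solution.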

[5] = tested on: Black Bean Aphid [Aphis fabae (Scop.)]; experiment: Black bean aphid spray test on nasturtium (BBA), 48 hours; conditions: percent of test compound in sprayed solution
In short: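 LC50, given as percent test compound in the sprayed liquid, was calculated from dosage-mortality curves using concentrations from 0.05% downward. Sprays in 50:50 acetone-water went to runoff on ~5 cm nasturtiums carrying 25-50 aphids of mixed ages, one day after infestation. Deaths were counted 48 h later under greenhouse conditions.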

[6] = tested on: Maize weevil [Sitophilus zeamais (Motschulsky)]; experiment: Maize weevil on dipped corn seeds (MW), 48 hours; conditions: percent in solution, adult weevils
In short: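 LC50, given as percent of compound in dipping solution, comes from dosage-mortality curves over concentrations descending from 0.01%. Four corn seeds soaked 2-3 s in 50:50 acetone:water solution were dried and held with 10 adult weevils, about 25° C, mortality read after 48 h.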

Compound	LC50 HF [1]	LC50 CL [2]	LC50 LH [3]	LC50 TBW E (eggs) [4]	LC50 BBA [5]	LC50 MW [6]
CC(C)C(=Nc1ccc(Br)cc1)OCc1cccc(Oc2ccccc2)c1 [Compound 131]	17 µg	0.0045%	0.005%	> 0.1%	0.003%	
Cc1ccc(Oc2cccc(COC(=Nc3ccc(F)c(Cl)c3)C(C)C)c2)cc1 [Compound 225]	> 100 µg	0.0025%	> 0.05%	> 0.1%	0.006%	
CC(C)C(=Nc1c(F)c(F)cc(F)c1F)OCc1cccc(Oc2ccccc2)c1 [Compound 57]	> 100 µg	0.004%	0.0005%	0.1%	0.03%	
Fc1ccc(N=C(OCc2cccc(Oc3ccccc3)c2)C(Cl)=C(Cl)Cl)cc1 [Compound 49]	> 100 µg	0.007%	> 0.05%	> 0.05%	0.05%	
CCc1cccc(N=C(OCc2cccc(Oc3ccccc3)c2)C(C)(C)C)c1 [Compound 162]	> 100 µg	0.035%	> 0.05%	> 0.1%	> 0.05%	
CCc1cccc(N=C(OCc2cccc(Oc3ccccc3)c2)C(C)C)c1 [Compound 154]	25 µg	0.004%	> 0.05%	0.1%	0.002%	
Clc1ccc(N=C(OCc2cccc(Oc3ccccc3)c2)C(Cl)Cl)c2ccccc12 [Compound 98]	> 100 µg	0.016%	> 0.05%	0.1%	> 0.05%	
COc1c(Cl)cc(N=C(OCc2cccc(Oc3ccccc3)c2)C(C)C)cc1Cl [Compound 91]	37 µg	0.002%	0.003%	> 0.01%	0.001%	
CCOC(=O)c1cc(N=C(OCc2cccc(Oc3ccccc3)c2)C(C)C)ccc1Cl [Compound 102]	> 100 µg	0.075%	> 0.05%	> 0.1%	0.05%	
CC(C)C(=Nc1ccc(C(C)C)cc1)OCc1cccc(Oc2ccc(F)cc2)c1 [Compound 228]	> 100 µg	0.0025%	> 0.05%	> 0.1%	0.01%	
CC(C)C(=Nc1ccc2c(c1)OC(C)(C)O2)OCc1ccc(F)c(Oc2ccccc2)c1 [Compound 242]	< 100 µg	0.00025%	> 0.05%	> 0.1%	< 0.05%	
CC(C)C(=Nc1ccc2c(c1)CCC2)OCc1cccc(Oc2ccccc2)c1 [Compound 187]	15 µg	0.0025%	0.0025%	> 0.1%	0.001%	
CC(C)C(=Nc1c(Cl)cc([N+](=O)[O-])cc1Cl)OCc1cccc(Oc2ccccc2)c1 [Compound 92]	> 100 µg	0.015%	> 0.05%	> 0.1%	> 0.05%	
COc1ccc(OC)c(N=C(OCc2cccc(Oc3ccccc3)c2)C(C)C)c1 [Compound 69]	> 100 µg	0.09%	> 0.05%	> 0.1%	> 0.05%	
CC(C)C(=Nc1ccc2c(c1)OCO2)OCc1cccc(Oc2ccc(F)cc2)n1 [Compound 465]	8 µg	0.0017%	0.0025%	0.027%		
CC(C)C(=Nc1ccc(I)cc1)OCc1cccc(Oc2ccccc2)c1 [Compound 137]	18 µg	0.003%	0.008%	0.04%	0.03%	
CC(C)C(=Nc1cc(F)ccc1Cl)OCc1ccc(F)c(Oc2ccc(F)cc2)c1 [Compound 303]	> 100 µg	0.0015%	0.0005%	> 0.1%		

Compound	LC50 HF [1]	LC50 CL [2]	LC50 LH [3]	LC50 TBW E (eggs) [4]	LC50 BBA [5]	LC50 MW [6]
CC(C)C(=Nc1cc(Cl)cc(Cl)c1)OCc1cccc(Oc2ccccc2)c1 [Compound 16]	20 µg	0.004%	0.0005%	0.04%	0.0004%	
CC(C)CC(=Nc1cc(Cl)cc(Cl)c1)OCc1cccc(Oc2ccccc2)c1 [Compound 10]	> 100 µg	0.01%	> 0.05%	> 0.1%	0.05%	
CC(C)C(=Nc1c(F)cc(F)cc1Br)OCc1cccc(Oc2ccccc2)c1 [Compound 129]	> 100 µg	0.005%	0.01%	> 0.1%	0.03%	
CSc1ccc(Oc2cccc(COC(=Nc3ccc(F)cc3)C(C)C)c2)cc1 [Compound 257]	> 100 µg	0.008%	> 0.05%	> 0.1%	0.05%	
Cc1ccc(N=C(OCc2cccc(Oc3ccccc3)c2)C(C)C)cc1Cl [Compound 90]	> 100 µg	> 0.1%	0.001%	0.016%	0.0003%	
CC(C)(Cl)C(=Nc1ccc(C#N)c(Cl)c1)OCc1cccc(Oc2ccccc2)c1 [Compound 108]	44 µg	0.002%	> 0.01%	> 0.1%	0.01%	
CC(C)C(=Nc1ccc(OC(F)(F)F)cc1)OCc1cccc(Oc2ccccc2)c1 [Compound 70]	< 100 µg	< 0.1%	> 0.05%	0.01%	< 0.05%	
CCCC(=Nc1ccc2c(c1)OCO2)OCc1cccc(Oc2ccccc2)c1 [Compound 188]	12 µg	0.002%	> 0.05%	> 0.1%		
CC(C)C(=Nc1ccc(I)c(Cl)c1)OCc1ccc(F)c(Oc2ccc(F)cc2)c1 [Compound 385]	< 100 µg	> 0.1%		> 0.1%	> 0.05%	> 0.01%
CC(C)C(=Nc1cccc(C(F)(F)F)c1)OCc1cc(Oc2ccccc2)ccn1 [Compound 506]	40 µg	0.005%		> 0.1%	0.03%	> 0.01%
CC(C)C(=Nc1cccc(C(F)(F)F)c1)OCc1ccnc(Oc2ccccc2)c1 [Compound 507]	93 µg	0.002%		> 0.1%	0.05%	> 0.01%
CCOc1ccc(N=C(OCc2ccc(F)c(Oc3ccccc3)c2)C(C)C)cc1 [Compound 373]	< 100 µg	> 0.1%		> 0.1%	0.001%	> 0.01%
CC(C)C(=Nc1ccc(F)c(F)c1)OCc1cccc(Oc2ccc(Cl)cc2)n1 [Compound 559]	< 100 µg	0.00027%		0.017%	0.0035%	> 0.01%
Cc1cccc(N=C(OCc2ccc(F)c(Oc3ccc(Cl)cc3)c2)C(C)C)c1 [Compound 401]	< 100 µg	0.0017%		0.04%	0.0006%	> 0.01%
CC(C)C(=Nc1ccc(F)c(Cl)c1)OCc1cccc(Oc2c(F)c(F)c(F)c(F)c2F)c1 [Compound 460]	> 100 µg	0.02%		> 0.1%	> 0.05%	> 0.01%
CCCc1ccc(N=C(OCc2ccc(F)c(Oc3ccc(F)cc3)c2)C(C)C)cc1 [Compound 440]	> 100 µg	0.002%		< 0.1%	0.0003%	> 0.01%
